In patent publication US9512089B2, “Tetrazole-substituted arylamides as P2X3 and P2X2/3 antagonists” (Roche Palo Alto LLC, priority 2007, dated 2016):

Biological target: T1, P2X2/3 receptor (Homo sapiens, UniProt P56373+Q9UBL9)
T1 construct: expressed in transfected cells; host or cells: CHO-K1
T1 sequence (P56373 1-397): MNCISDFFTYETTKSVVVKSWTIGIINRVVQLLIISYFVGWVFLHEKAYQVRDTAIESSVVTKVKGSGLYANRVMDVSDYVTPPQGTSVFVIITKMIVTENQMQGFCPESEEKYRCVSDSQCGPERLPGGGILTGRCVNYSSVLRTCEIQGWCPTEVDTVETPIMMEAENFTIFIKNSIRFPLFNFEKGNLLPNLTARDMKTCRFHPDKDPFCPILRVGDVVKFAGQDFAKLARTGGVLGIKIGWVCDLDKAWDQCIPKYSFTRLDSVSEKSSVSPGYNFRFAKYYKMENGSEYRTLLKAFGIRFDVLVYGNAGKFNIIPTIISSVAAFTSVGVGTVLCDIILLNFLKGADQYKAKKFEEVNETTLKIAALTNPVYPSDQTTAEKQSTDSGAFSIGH
T1 sequence (Q9UBL9 1-471): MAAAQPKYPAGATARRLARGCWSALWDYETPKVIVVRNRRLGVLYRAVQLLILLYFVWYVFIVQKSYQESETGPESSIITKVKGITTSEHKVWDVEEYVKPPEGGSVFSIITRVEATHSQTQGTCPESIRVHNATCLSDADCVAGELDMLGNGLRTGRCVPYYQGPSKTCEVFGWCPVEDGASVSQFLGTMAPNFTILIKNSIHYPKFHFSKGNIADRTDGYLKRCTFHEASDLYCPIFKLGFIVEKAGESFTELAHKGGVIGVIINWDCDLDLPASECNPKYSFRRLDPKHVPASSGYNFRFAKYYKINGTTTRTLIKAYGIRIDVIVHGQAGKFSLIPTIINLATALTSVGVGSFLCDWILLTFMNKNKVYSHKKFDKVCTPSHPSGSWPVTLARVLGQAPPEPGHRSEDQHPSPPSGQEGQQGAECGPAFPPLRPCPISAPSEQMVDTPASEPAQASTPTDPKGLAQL
Experiment: P2X2/3 FLIPR (Fluorometric Imaging Plate Reader) assay
Format: cell-based
Settings: CHO-K1 cells transfected with human P2X2/3; agonist α,β-meATP 5 μM; Fluo-3 fluorescence
Protocol: CHO-K1 cells were transfected with cloned rat P2X3 or human P2X2/3 receptor subunits and passaged in flasks. 18-24 hours before the FLIPR experiment, cells were released from their flasks, centrifuged, and resuspended in nutrient medium at 2.5×10^5 cells/ml. The cells were aliquoted into black-walled 96-well plates at a density of 50,000 cells/well and incubated overnight in 5% CO2 at 37° C. On the day of the experiment, cells were washed in FLIPR buffer (calcium- and magnesium-free Hank's balanced salt solution, 10 mM HEPES, 2 mM CaCl2, 2.5 mM probenecid; FB). Each well received 100 μl FB and 100 μl of the fluorescent dye Fluo-3 AM [2 μM final conc.]. […]
Test compounds (dissolved in DMSO at 10 mM and serially diluted with FB) or vehicle were added to each well (25 μl of a 4× solution) and allowed to equilibrate for 20 minutes at room temperature. The plates were then placed in the FLIPR and a baseline fluorescence measurement (excitation at 488 nm and emission at 510-570 nm) was obtained for 10 seconds before a 100 μl/well agonist or vehicle addition. […] Fluorescence was measured for an additional 2 minutes at 1 second intervals after agonist addition. A final addition of ionomycin (5 μM, final concentration) was made to each well of the FLIPR test plate to establish cell viability and maximum fluorescence of dye-bound cytosolic calcium. […]

With `CCc1nnnn1-c1cc(C(=O)NC(C)c2cnccn2)cc(-c2ccc(C)cc2)c1` (stereo not shown) [5-(5-ethyl-tetrazol-1-yl)-4′-methyl-biphenyl-3-carboxylic acid (1-pyrazin-2-yl-ethyl)-amide] the IC50 was about 7.94 nM.
